Where “and” joins values, the source holds several entries; their conditions need not be identical. Identical values can stand only once.
Key:
[1] = molecular target: T1, Inhibitor of nuclear factor kappa-B kinase subunit alpha (Homo sapiens) (UniProt O15111); conditions: at 1 µM
T1 sequence (whole entry): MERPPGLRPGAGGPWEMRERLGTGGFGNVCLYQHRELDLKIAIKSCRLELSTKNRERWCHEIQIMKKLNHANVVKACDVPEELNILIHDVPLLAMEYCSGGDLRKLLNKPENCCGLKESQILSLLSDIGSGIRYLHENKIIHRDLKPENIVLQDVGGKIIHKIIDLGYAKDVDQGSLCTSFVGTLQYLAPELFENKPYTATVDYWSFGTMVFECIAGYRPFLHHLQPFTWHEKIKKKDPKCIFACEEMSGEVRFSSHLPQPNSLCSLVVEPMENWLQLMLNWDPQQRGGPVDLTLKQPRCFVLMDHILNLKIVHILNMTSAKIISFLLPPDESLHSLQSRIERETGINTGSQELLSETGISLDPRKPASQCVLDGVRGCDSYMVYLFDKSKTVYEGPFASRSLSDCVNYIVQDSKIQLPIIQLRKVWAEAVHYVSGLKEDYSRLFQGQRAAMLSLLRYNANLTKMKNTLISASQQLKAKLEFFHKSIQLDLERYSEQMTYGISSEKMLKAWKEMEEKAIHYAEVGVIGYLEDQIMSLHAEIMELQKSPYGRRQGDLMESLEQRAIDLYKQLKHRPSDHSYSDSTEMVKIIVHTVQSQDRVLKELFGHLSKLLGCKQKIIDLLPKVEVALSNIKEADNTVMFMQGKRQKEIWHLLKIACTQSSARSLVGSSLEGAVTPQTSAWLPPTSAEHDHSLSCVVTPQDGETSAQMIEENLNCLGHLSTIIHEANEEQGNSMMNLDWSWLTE

[2] = molecular target: T2, Inhibitor of nuclear factor kappa-B kinase subunit beta (Homo sapiens) (UniProt O14920); conditions: at 1 µM
T2 sequence (whole entry): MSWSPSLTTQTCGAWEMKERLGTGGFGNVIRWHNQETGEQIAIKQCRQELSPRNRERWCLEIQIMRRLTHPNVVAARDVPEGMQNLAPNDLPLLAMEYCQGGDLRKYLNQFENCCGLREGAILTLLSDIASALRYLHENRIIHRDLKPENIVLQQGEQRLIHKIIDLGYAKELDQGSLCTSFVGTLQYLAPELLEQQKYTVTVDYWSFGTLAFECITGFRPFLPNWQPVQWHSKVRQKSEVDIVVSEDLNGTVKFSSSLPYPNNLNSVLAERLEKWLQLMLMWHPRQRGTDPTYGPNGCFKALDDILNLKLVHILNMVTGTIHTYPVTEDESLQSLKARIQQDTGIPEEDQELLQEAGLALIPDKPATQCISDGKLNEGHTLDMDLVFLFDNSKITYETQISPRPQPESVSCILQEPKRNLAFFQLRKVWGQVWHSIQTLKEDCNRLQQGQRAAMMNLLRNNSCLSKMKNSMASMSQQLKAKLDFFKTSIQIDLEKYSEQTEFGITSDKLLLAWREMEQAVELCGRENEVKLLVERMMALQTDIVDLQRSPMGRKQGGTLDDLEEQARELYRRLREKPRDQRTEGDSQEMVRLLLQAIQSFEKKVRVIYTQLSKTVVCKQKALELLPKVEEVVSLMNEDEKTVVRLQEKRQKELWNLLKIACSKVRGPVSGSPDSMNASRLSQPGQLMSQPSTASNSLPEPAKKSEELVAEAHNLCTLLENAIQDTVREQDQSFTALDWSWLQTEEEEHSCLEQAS

NS(=O)(=O)c1ccc(-c2ccc3c(NC(=O)C4CC4)n[nH]c3c2)cc1
inhibition [1]: -1% and 2% | inhibition [2]: -7% and -3%

COc1ccc(-c2cc(-c3c[nH]nc3-c3ccccn3)ccn2)cc1
inhibition [1]: 6% | inhibition [2]: -7% and -8%

CN(c1ccc(NC(=O)Nc2ccc(OC(F)(F)F)cc2)cc1)c1ccnc(Nc2cccc(S(N)(=O)=O)c2)n1
inhibition [1]: 2% and 3% | inhibition [2]: -5% and -4%

COc1ccc(-c2oc3ncnc(N)c3c2-c2ccc(NC(=O)Nc3cc(C(F)(F)F)ccc3F)cc2)cc1
inhibition [1]: 2% and 1% | inhibition [2]: -8% and -6%

CN1CCN(Cc2ccc(-c3cc4ncnc(Nc5ccc(OCc6cccc(F)c6)c(Cl)c5)c4s3)o2)CC1
inhibition [1]: 0% and -4% | inhibition [2]: -3%

Cc1ccc(-c2cc3c(NC(=O)C4CC4)ncnc3o2)cc1
inhibition [1]: 0% and -1% | inhibition [2]: -2% and -4%

Cc1ccc(C(=O)NC2CCCCC2)cc1-c1ccc(C(=O)NCC2CC2)cc1
inhibition [1]: 9% and 7% | inhibition [2]: 5% and 0%

CC1=C(C(=O)Nc2ccc3[nH]ncc3c2)C(c2ccc3ccccc3c2)CC(=O)N1 (configuration not stated)
inhibition [1]: 0% and 11% | inhibition [2]: -3%

CCn1c(-c2nonc2N)nc2cncc(C(=O)N3CC[C@H](N)C3)c21
inhibition [1]: 35% and 28% | inhibition [2]: -1% and -5%

O=C(Nc1n[nH]c2nc(-c3ccco3)c(Br)cc12)C1CC1
inhibition [1]: 85% | inhibition [2]: -5% and -1%

COc1cc2c(cc1Nc1nc(Nc3ccsc3C(N)=O)c3cc[nH]c3n1)N(C(=O)CN(C)C)CCC2
inhibition [1]: 3% and 4% | inhibition [2]: -6% and -4%

CCn1c(-c2nonc2N)nc2c(C#CC(C)(C)O)ncc(OC[C@@H]3CCCN3)c21
inhibition [1]: 18% and 19% | inhibition [2]: -2% and -1%

CCn1c(-c2nonc2N)nc2c(C#CC(C)(C)O)ncc(OC3CCNCC3)c21
inhibition [1]: 9% and 5% | inhibition [2]: -4%

Oc1cccc(-c2nc(-c3ccccc3)[nH]c2-c2ccncc2)c1
inhibition [1]: 2% | inhibition [2]: 1% and 0%

[O-][S+]1CCN(Cc2ccc(-c3ccc4ncnc(Nc5ccc(OCc6cccc(F)c6)c(Cl)c5)c4c3)o2)CC1
inhibition [1]: 16% and 1% | inhibition [2]: 2% and 3%

CS(=O)(=O)CCNCc1ccoc1-c1ccc2ncnc(Nc3ccc(OCc4ccccc4)cc3)c2c1
inhibition [1]: -2% | inhibition [2]: 5% and 4%

COc1ccc2cc(-c3c(-c4ccncc4)nc(-c4ccc([S+](C)[O-])cc4)n3C)ccc2c1 (configuration not stated)
inhibition [1]: 4% and 3% | inhibition [2]: 2% and 3%

COc1ccc(Nc2ncc(-c3ccccc3)o2)cc1OC
inhibition [1]: 1% | inhibition [2]: -2% and -6%

CNC(=O)c1cncc(/C=C/c2ccccc2Cl)c1
inhibition [1]: 3% and 1% | inhibition [2]: -5%

Fc1ccc(-c2ncn(C3CCNCC3)c2-c2ccnc(Oc3ccc4c(c3)OCO4)n2)cc1
inhibition [1]: -2% and 0% | inhibition [2]: -2% and -3%

c1ccc(Oc2ccc(Nc3ncc(-c4ccccc4)o3)cc2)cc1
inhibition [1]: 1% and 2% | inhibition [2]: -5% and -2%

Fc1ccc(-c2ncn(C3CCNCC3)c2-c2ccnc(Oc3ccc(Oc4ccccc4)cc3)n2)cc1
inhibition [1]: -5% and -4% | inhibition [2]: 0%

Cc1cc(Cl)cc2c1NC(=O)C2=NNc1ccc(S(N)(=O)=O)cc1
inhibition [1]: 11% | inhibition [2]: -6% and -1%

CCCN1CCC=C(c2ccc(Nc3nc(Nc4ccccc4C(N)=O)c4cc[nH]c4n3)c(C)c2)C1
inhibition [1]: 4% and 2% | inhibition [2]: -3% and -1%

Fc1ccc(-c2ncn(CCCN3CCOCC3)c2-c2ccncc2)cc1
inhibition [1]: 0% and 1% | inhibition [2]: 0% and -5%

COC(=O)Nc1nc2cc(Oc3ccc(NC(=O)Nc4ccccc4)cc3)ccc2[nH]1
inhibition [1]: -1% and -2% | inhibition [2]: 1% and -1%

c1ccc(Cc2nc3ccc(Nc4ncnc5ccccc45)cc3[nH]2)cc1
inhibition [1]: -3% and 1% | inhibition [2]: -5% and -6%

CNC(=O)c1cc(-c2ccc(F)cc2)cc(-c2ccc(S(=O)(=O)N3CCCC3)cc2)c1N
inhibition [1]: -3% and -6% | inhibition [2]: 3% and 4%

CS(=O)(=O)Nc1ccc(N/C=C2\C(=O)Nc3ccccc32)cc1
inhibition [1]: 4% and 0% | inhibition [2]: -1% and -4%

CN(C)C(=O)O[C@@H]1CN[C@@H](C#Cc2cc3ncnc(Nc4ccc(OCc5cccc(F)c5)c(Cl)c4)c3s2)C1
inhibition [1]: 2% and 1% | inhibition [2]: -4% and -7%

COc1cc2ncn(-c3cc(OCc4ccccc4S(C)(=O)=O)c(C#N)s3)c2cc1OC
inhibition [1]: 1% and 2% | inhibition [2]: -5% and -2%

Cc1nnc(-c2cccc(-c3ccc(C(=O)NCC4CC4)cc3)c2)o1
inhibition [1]: 3% and 4% | inhibition [2]: -4%

CCN1CCC(CC(=O)Nc2n[nH]c3nnc(-c4cccc(F)c4F)cc23)CC1
inhibition [1]: 1% and 6% | inhibition [2]: -2% and -1%

NS(=O)(=O)c1ccc(N/N=C2\C(=O)Nc3ccc(Cl)cc32)cc1
inhibition [1]: 2% | inhibition [2]: -3% and -5%

Fc1ccc(Nc2nccc(-c3c(-c4ccc(C(F)(F)F)cc4)nn4ncccc34)n2)cc1F
inhibition [1]: 19% and 13% | inhibition [2]: 1% and -2%

Fc1ccc(-c2ncn(C3CCNCC3)c2-c2ccnc(Oc3ccccc3)n2)cc1
inhibition [1]: 3% and 2% | inhibition [2]: -2%

COc1ccc(COc2ccc(Cc3cnc(N)nc3N)cc2OC)cc1
inhibition [1]: 2% | inhibition [2]: -2% and -5%

Nc1nc(-c2ccc(F)cc2)c(-c2ccc3ncccc3n2)s1
inhibition [1]: 0% and 1% | inhibition [2]: -3% and -1%

CN(C)CCCn1c(-c2nonc2N)nc2cnccc21
inhibition [1]: 8% and 10% | inhibition [2]: -5% and -4%

CC(C)c1ccc(-c2cc(-c3c[nH]nc3-c3ccccn3)ccn2)cc1
inhibition [1]: 1% and 0% | inhibition [2]: -3% and -1%

CN1CCC(C(=O)Nc2n[nH]c3nc(-c4ccc(O)cc4)c(Br)cc23)CC1
inhibition [1]: 1% and 3% and 4% | inhibition [2]: -1% [middle of 4 runs]

COc1ccc2cc(-c3c(-c4ccncc4)nc(-c4ccc([S+](C)[O-])cc4C)n3C)ccc2c1 (configuration not stated)
inhibition [1]: -4% and -5% | inhibition [2]: 1% and 0%

O=C(Nc1n[nH]c2cc(-c3ccc(F)cc3)ccc12)C1CC1
inhibition [1]: 2% and 12% | inhibition [2]: -8% and -2%

c1cnn2ncc(-c3ccnc(Nc4ccc5c(c4)OCCO5)n3)c2c1
inhibition [1]: 0% and -2% | inhibition [2]: -4%

NS(=O)(=O)c1ccc(N/N=C2\C(=O)Nc3ccc4ncccc4c32)cc1
inhibition [1]: 4% and -7% | inhibition [2]: -9% and -6%

NC(=O)c1ccc(Oc2nccc(-c3c(-c4ccc(F)cc4)ncn3C3CCNCC3)n2)cc1
inhibition [1]: -5% and -4% | inhibition [2]: 0%

FC(F)(F)CNc1nccc(-c2cnn3ncccc23)n1
inhibition [1]: 2% and 7% | inhibition [2]: -5% and 2%

Cc1c2ccc(N(C)c3ccnc(Nc4cccc(S(N)(=O)=O)c4)n3)cc2nn1C
inhibition [1]: 2% | inhibition [2]: 0% and -1%

CN(c1ccc(NC(=O)Nc2c(Cl)cccc2Cl)cc1)c1ccnc(Nc2cccc(CS(C)(=O)=O)c2)n1
inhibition [1]: 0% and 6% | inhibition [2]: -3% and -5%

CCS(=O)(=O)c1ccc(OC)c(Nc2nccc(N(C)c3ccc4c(C)n[nH]c4c3)n2)c1
inhibition [1]: -7% and 2% | inhibition [2]: 3% and -7%

COc1cc2ncn(-c3cc(OCc4ccccc4C(F)(F)F)c(C(C)=O)s3)c2cc1OC
inhibition [1]: 5% and 4% | inhibition [2]: -7% and -4%

Nc1ncnc2occ(-c3ccc(NC(=O)Nc4cc(C(F)(F)F)cc(C(F)(F)F)c4)cc3)c12
inhibition [1]: 4% and 1% | inhibition [2]: -4%

CCn1c(-c2nonc2N)nc2c(C#CC(C)(C)O)ncc(OCC3CCNCC3)c21
inhibition [1]: 9% and 3% | inhibition [2]: -3%

CN(C)CCNC(=O)Nc1ccc(N(C)c2ccnc(Nc3ccc(CS(C)(=O)=O)cc3)n2)cc1
inhibition [1]: 1% | inhibition [2]: -1% and -5%

Cc1cccc(Nc2ncc(-c3ccccc3)o2)c1
inhibition [1]: -1% and -2% | inhibition [2]: 2% and 1%

CN1CCC(n2cnc(-c3ccc(F)cc3)c2-c2ccnc(N)n2)CC1
inhibition [1]: 2% | inhibition [2]: -3%

From ChEMBL document CHEMBL2007661, “Compounds: GSK PKIS; Assays: UNC Frye lab” (2012)
